Source: PMC9412414, “A Study on Repositioning Nalidixic Acid via Lanthanide Complexation: Synthesis, Characterization, Cytotoxicity and DNA/Protein Binding Studies” (Pharmaceuticals, 2022)

Columns and labels:
[1] = biological target: T1, human serum albumin (HSA) (Homo sapiens, UniProt P02768); assay: HSA fluorescence quenching binding study; settings: for Ka (association binding constant), HSA / n1 (Number of Binding Sites), HSA / n2 (Hill Coefficient), HSA / Kd / fa (fraction of fluorophore accessible to the quencher), HSA / Kq (bimolecular quenching constant), HSA: 298 K; for Kd: read-out: Kd (dissociation constant), HSA; for fa (fraction of fluorophore accessible to the quencher), HSA / Ksv* (Stern–Volmer quenching constant), HSA: compound 0–8 µM; for Ksv* (Stern–Volmer quenching constant), HSA: Tris-HCl pH 7.4, 298 K; for Kq (bimolecular quenching constant), HSA: from Ksv* with τ0 = 10^−8 s
T1 construct: purchased Sigma-Aldrich Chemical Co. (Schnelldorf, Germany)
Experimental: (§1) Using a Jasco FP 6500 spectrofluorometer (Jasco, Tokyo, Japan) and quartz cells with a 1 cm path length, the fluorescence spectra of HSA and apo-Tf were recorded in the presence and absence of the examined substances. The 2.5 mL samples containing 2.5 µM HSA or 1 µM apo-Tf were titrated by adding 5 µL of the tested substance at a time, a volume that corresponded to a 1 µM increase in concentration. The concentration range used for these experiments varied from 0 to 8 µM. The relevant spectra were collected in the emission domains of 300–500 nm (HSA) and 305–500 nm (apo-Tf) after 3 min of continuous stirring at room temperature, using excitation wavelengths of 280 nm (HSA) and 295 nm (apo-Tf).
(§2) Experiments were conducted in a pH = 7.4 Tris-HCl buffer (5 mM Tris-HCl/50 mM NaCl for HSA and 5 mM Tris-HCl/50 mM NaCl/25 mM NaHCO3 for apo-Tf).
(§3) The following modified Stern–Volmer equation has been used to calculate the Stern–Volmer constant, which will be denoted as KSV* in order to differentiate it from the Stern–Volmer constant calculated for the DNA binding experiments:(5) F0/F0−F=1/faKsv*[Q]+1/fa where F0 and F are the fluorescence intensities in the absence and presence of the tested compounds, fa is the fraction of fluorophore accessible to the quencher (the tested compounds), [Q] is the quencher concentration, and KSV* (M^−1) is the Stern–Volmer constant; the plot of F0/(F0 − F) against 1/[Q] yields KSV as the slope and fa as the y intercept.
(§4) Subsequently, the bimolecular quenching rate constant was obtained by using Equation (6):(6) Ksv^*=Kqτ0
(§5) Kq (M^−1·s^−1) is the bimolecular quenching rate constant and τ0 is the fluorophore’s lifespan in the absence of the investigated chemicals (10^−8 s). The value of Kq can be used to assess whether the quenching phenomena have an underlying static or dynamic mechanism.
(§6) Using the following equation, the affinity constant (Ka) and the number of binding sites (n) have been calculated: (7) lgF0−F/F=lgKa+nlg[Q]
(§7) The binding affinity, Kd, can be calculated using the quadratic function below:(8) F0−F/F0−Fb=[P]t+[Q]+Kd−([P]t+[Q]+Kd)^2−4[P]t[Q]/2[P]t where F and F0 are the fluorescence intensities of the protein in the presence and absence of the quencher, respectively, Fb is the fluorescence of a fully bound protein–quencher, [P]t is the total concentration of the protein, and [Q] is the concentration of the added quencher. Each binding isotherm was plotted against the total quencher concentration in solution as a function of bound to free protein (F/F0).
(§8) The isotherms were then fitted using the nonlinear regression function below:(9) F/F0= F1+(F2−F1)Kdn/Kdn+[Q]^n where n represents the Hill coefficient, F1 and F2 are the horizontal and vertical asymptotes, respectively. The Kd in Equation (9) is derived from the quadratic binding function (Equation (8)).
(§9) Data were collected in triplicate, averaged, and expressed as mean value ± standard deviation (SD). All graph fitting models were defined and built using OriginPro® 2018.

[2] = tested on: LoVo (human colorectal adenocarcinoma) cell line; assay: MTS cytotoxicity assay, LoVo cell line; format: cell-based; settings: 48 h of incubation
Experimental: (§10) LoVo, MDA-MB-231 and HUVEC human cell lines were purchased from American Type Culture Collection (ATCC). Cells were routinely maintained in culture either in culture flasks or seeded in plates, using Dulbecco’s modified Eagle medium/nutrient mixture F-12 (DMEM:F12) medium supplemented with […], 10% fetal calf serum (Sigma Aldrich, St. Louis, MO, USA), 100 units/mL penicillin, 100 μg/mL streptomycin and incubated at 37 °C in 5% CO2 humidified atmosphere.
(§11) Cytotoxicity studies were performed in 96-well microtiter plates with flat bottoms (Falcon, Teterboro, NJ, USA) using the CellTiter 96 Aqueous One Solution Cell Proliferation Assay (Promega, Madison, WI, USA), an MTS-based colorimetric assay. Metabolically active cells have the ability to reduce MTS [3-(4,5-dimethylthiazol-2-yl)-5-(3-carboxymethoxyphenyl)-2-(4-sulfophenyl)-2H-tetrazolium, inner salt], a yellow tetrazolium salt, to a colored formazan that is soluble in the culture medium. Briefly, 15 × 10^3 cells per well were cultured in 100 µL culture medium. After 24 h, adherent cells were treated with different concentrations of the studied compounds, as well as adriamycin (Adr) and cisplatin (Cis-Pt), used as positive controls for 24 h and 48 h, respectively. Each well was then filled with 20 µL of reagent containing MTS and PES (phenazine ethosulfate, a cationic dye with excellent chemical stability that binds to MTS and produces a stable solution). The resulting formazan was determined using a Tecan GENios Spectrophotometer (Tecan US, Durham, NC, USA) by measuring the absorbance at λ = 492 nm after incubation for 4 h at 37 °C with moderate agitation every 15 min. The cytotoxicity tests were performed in triplicate, with results reported as mean values with standard deviations (SD). The cytotoxicity of DMSO was also investigated under the same conditions, and no harmful effect was found at doses less than 1%.
(§12) Data were expressed as cell viability by comparing with untreated cells considered 100% viable, using the following formula:(1) Cell viability (%)=absorbance of treated cells−absorbance of culture medium/absorbance of untreated cells−absorbance of culture medium

EB–DNA system (CT-DNA) = assay: Competitive binding assay with ethidium bromide (EB) through fluorescence spectroscopy; set-up: species or system calf; settings: EB 2 µM, CT-DNA 10 µM, compound 0–40 µM
Experimental: The fluorescence spectra were recorded using 1.6 mL samples containing 10 µM CT-DNA, 2 µM EB, and increasing amounts (0–40 µM with an increment of 5 µM) of tested compounds; the samples were prepared by keeping the components in contact for 10 min at room temperature, under continuous stirring and in the dark. The excitation wavelength was 500 nm, and the spectra were recorded between the wavelengths of 520 and 800 nm. A Jasco FP 6500 fluorometer and quartz cells with a 1 cm route length were employed. The classical Stern–Volmer equation (Equation (3)) was used to interpret the obtained data:(3) F0/F=1+KSV·[Q] F0 and F are the fluorescence intensities of the EB–DNA samples in the absence and presence of the tested compounds, respectively; KSV is the Stern–Volmer constant, which was computed as the slope from the plot of F0/F vs. [Q], where [Q] is the chemical concentration.
The binding ratio was plotted against the logarithm of the concentration in comparison with a control sample exposed solely to DMSO. (4) y=A1+(A2−A1)×x^n/K50^n+x^n
For fitting data points, the modified Hill function with offset (Origin®) was used: where y represents the binding ratio (F/F0), x represents the concentration, A1 represents the minimum of y values, A2 represents the maximum of y values, K50 represents the concentration corresponding to 50% binding or the half maximum binding constant, and n represents the Hill coefficient.

apotransferrin (apo-Tf) = biological target: T2, apotransferrin (apo-Tf) (Homo sapiens, UniProt P02787); assay: Apo-Tf fluorescence quenching binding study; settings: for Ka (association binding constant), Apo-Tf / n1 (Number of Binding Sites), Apo-Tf / Kd / fa (fraction of fluorophore accessible to the quencher), Apo-Tf / Ksv* (Stern–Volmer quenching constant), Apo-Tf / quenching effect on apo-Tf fluorescence peak / n2 (Hill Coefficient), Apo-Tf: apo-Tf 1 µM; for Ka (association binding constant), Apo-Tf / n1 (Number of Binding Sites), Apo-Tf / Kd / fa (fraction of fluorophore accessible to the quencher), Apo-Tf / Kq (bimolecular quenching constant), Apo-Tf / n2 (Hill Coefficient), Apo-Tf: 298 K; for Kd: read-out: Kd (dissociation constant), Apo-Tf; for fa (fraction of fluorophore accessible to the quencher), Apo-Tf / Ksv* (Stern–Volmer quenching constant), Apo-Tf: compound 0–8 µM; for Ksv* (Stern–Volmer quenching constant), Apo-Tf: Tris-HCl pH 7.4, 298 K; for quenching effect on apo-Tf fluorescence peak: compound up to 8 µM; for Kq (bimolecular quenching constant), Apo-Tf: from Ksv* with τ0 = 10^−8 s
T2 construct: purchased Sigma-Aldrich Chemical Co. (Schnelldorf, Germany)
Experimental: as §1, §2, §3, §4, §5, §6, §7, §8, §9

[3] = tested on: HUVEC (human umbilical vein endothelial cells); assay: MTS cytotoxicity assay, HUVEC normal cell line; format: cell-based; settings: 24 h of incubation
Experimental: as §10, §11, §12

T1 sequence (P02768 25-609): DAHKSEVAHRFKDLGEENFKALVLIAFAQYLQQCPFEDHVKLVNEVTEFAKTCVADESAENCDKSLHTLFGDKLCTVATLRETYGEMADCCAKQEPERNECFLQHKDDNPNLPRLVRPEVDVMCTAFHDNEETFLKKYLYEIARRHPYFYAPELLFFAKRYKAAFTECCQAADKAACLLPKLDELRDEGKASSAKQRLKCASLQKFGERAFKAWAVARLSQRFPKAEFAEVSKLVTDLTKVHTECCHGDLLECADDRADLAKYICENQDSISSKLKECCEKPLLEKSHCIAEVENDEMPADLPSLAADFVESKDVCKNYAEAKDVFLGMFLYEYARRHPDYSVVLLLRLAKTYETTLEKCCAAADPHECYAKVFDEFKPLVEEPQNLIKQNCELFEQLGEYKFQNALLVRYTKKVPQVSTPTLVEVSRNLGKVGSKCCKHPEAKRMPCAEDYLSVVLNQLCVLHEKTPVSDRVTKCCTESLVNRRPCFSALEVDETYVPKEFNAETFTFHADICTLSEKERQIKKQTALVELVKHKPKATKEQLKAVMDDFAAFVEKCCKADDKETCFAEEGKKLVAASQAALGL
T2 sequence (P02787 20-698): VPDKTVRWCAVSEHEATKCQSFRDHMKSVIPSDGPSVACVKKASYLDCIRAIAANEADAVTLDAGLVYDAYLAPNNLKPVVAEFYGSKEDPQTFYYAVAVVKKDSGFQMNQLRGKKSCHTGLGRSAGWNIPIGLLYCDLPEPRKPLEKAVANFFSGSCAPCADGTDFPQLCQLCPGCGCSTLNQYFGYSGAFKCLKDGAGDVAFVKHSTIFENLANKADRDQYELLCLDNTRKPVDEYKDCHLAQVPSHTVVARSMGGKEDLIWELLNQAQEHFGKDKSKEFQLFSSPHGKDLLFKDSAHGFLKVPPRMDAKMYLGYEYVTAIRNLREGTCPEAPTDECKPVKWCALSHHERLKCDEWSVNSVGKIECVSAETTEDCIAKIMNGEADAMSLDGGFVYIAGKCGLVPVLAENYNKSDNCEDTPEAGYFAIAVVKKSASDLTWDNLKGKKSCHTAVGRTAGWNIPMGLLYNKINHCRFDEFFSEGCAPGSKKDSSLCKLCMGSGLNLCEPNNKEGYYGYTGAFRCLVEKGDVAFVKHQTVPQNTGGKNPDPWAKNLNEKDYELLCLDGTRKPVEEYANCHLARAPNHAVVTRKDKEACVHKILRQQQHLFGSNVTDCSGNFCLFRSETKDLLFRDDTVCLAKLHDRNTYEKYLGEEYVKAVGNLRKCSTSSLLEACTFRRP

Row | SMILES | Ka (association binding constant), HSA ([1]; HSA 2.5 µM) | n1 (Number of Binding Sites), HSA ([1]; HSA 2.5 µM) | n2 (Hill Coefficient), HSA ([1]; HSA 2.5 µM) | Kd ([1]; HSA 2.5 µM) [µM] | fa (fraction of fluorophore accessible to the quencher), HSA ([1]; HSA 2.5 µM) | Ksv* (Stern–Volmer quenching constant), HSA ([1]; HSA 2.5 µM) | IC50 [2] [µM] | IC50 (μM) LoVo [2] | EB Displacement Assay K50 (half maximum binding constant) (EB–DNA system (CT-DNA)) [µM] | KSV, Stern–Volmer quenching constant (EB–DNA) (EB–DNA system (CT-DNA)) | Ka (association binding constant), Apo-Tf (apotransferrin (apo-Tf)) | n1 (Number of Binding Sites), Apo-Tf (apotransferrin (apo-Tf)) | Kd (apotransferrin (apo-Tf)) [µM] | fa (fraction of fluorophore accessible to the quencher), Apo-Tf (apotransferrin (apo-Tf)) | Ksv* (Stern–Volmer quenching constant), Apo-Tf (apotransferrin (apo-Tf)) | quenching effect on apo-Tf fluorescence peak (apotransferrin (apo-Tf)) [%] | Kq (bimolecular quenching constant), Apo-Tf (apotransferrin (apo-Tf)) [M⁻¹ s⁻¹] | IC50 [3] [µM] | Kq (bimolecular quenching constant), HSA [1] [M⁻¹ s⁻¹] | n2 (Hill Coefficient), Apo-Tf (apotransferrin (apo-Tf)) | further results
1 | CCn1cc(C(=O)[O-])c(=O)c2ccc(C)nc21.CCn1cc(C(=O)[O-])c(=O)c2ccc(C)nc21.O.O.O.O.[Eu+3].[OH-] [Eu(nal)2, Eu(C12H11N2O3)2(OH)(H2O)·3H2O] | (11.99 ± 1.38) × 10^5 M^−1 | 1.13 ± 0.01 | 1.14 ± 0.27 | 4.63 ± 0.97 | 1.17 ± 0.04 | (1.75 ± 0.11) × 10^5 M^−1 | > 200 | not toxic | 34.75 ± 3.69 | 8.35 ± 0.13 M^−1 (×10^3) | (1.02 ± 0.13) × 10^4 M^−1 | 0.80 ± 0.01 | 7.07 ± 6.13 | 0.71 ± 0.01 | (1.85 ± 0.06) × 10^5 M^−1 | 41 | 1.85e+13 | > 200 | – | – | quenching effect on HSA fluorescence peak ([1]; HSA 2.5 µM, compound up to 8 µM): 67%
2 | CCn1cc(C(=O)[O-])c(=O)c2ccc(C)nc21.CCn1cc(C(=O)[O-])c(=O)c2ccc(C)nc21.O.O.O.O.[Gd+3].[OH-] [Gd(nal)2, Gd(C12H11N2O3)2(OH)(H2O)·3H2O] | (15.52 ± 2.93) × 10^5 M^−1 | 1.15 ± 0.01 | 1.20 ± 0.23 | 4.79 ± 0.84 | 1.25 ± 0.03 | (1.51 ± 0.07) × 10^5 M^−1 | > 200 | not toxic | 34.11 ± 8.90 | 10.47 ± 0.13 M^−1 (×10^3) | (3.46 ± 1.34) × 10^4 M^−1 | 0.94 ± 0.03 | 8.87 ± 6.2 | 0.92 ± 0.07 | (0.78 ± 0.09) × 10^5 M^−1 | – | 7.8e+12 | > 200 | 1.51e+13 | 1.20 ± 0.40 | –
3 | CCn1cc(C(=O)[O-])c(=O)c2ccc(C)nc21.CCn1cc(C(=O)[O-])c(=O)c2ccc(C)nc21.CCn1cc(C(=O)[O-])c(=O)c2ccc(C)nc21.O.O.O.O.O.O.O.O.[La+3] [La(nal)3, La(C12H11N2O3)3(H2O)2·6H2O] | (27.48 ± 2.10) × 10^5 M^−1 | 1.16 ± 0.00 | 1.18 ± 0.08 | 2.91 ± 0.07 | 1.12 ± 0.01 | (2.75 ± 0.10) × 10^5 M^−1 | 49.8 ± 7.92 | – | 36.45 ± 16.53 | 2.48 ± 0.44 M^−1 (×10^3) | (1.51 ± 0.72) × 10^4 M^−1 | 0.86 ± 0.04 | 8.64 ± 2.22 | 0.80 ± 0.06 | (1.04 ± 0.13) × 10^5 M^−1 | 31 | 1.04e+13 | 149 ± 17.9 | 2.75e+13 | 1.04 ± 0.19 | –
